pIC50: −log10 of the molar value.
Tested on: 889142-216-R-J1-PDC complex spheroid viability
Assay: Anticancer human tumor 889142-216-R-J1-PDC patient-derived bladder carcinoma cell line growth inhibition [POLQ]
Details: for pIC50: curve of first compound; for viability, T/C: stronger effect = lower value
In short: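 Three-cell-type spheroids modelling solid tumor plus stroma served as the readout system; POL inhibitors were tested individually and in combination, concentration ranges set by clinical Cmax where known.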
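Note: spheroids exposed to compounds for seven days.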
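Throughout, for viability, T/C: 100% = DMSO vehicle control viability.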

In the case of C=CCn1c(=O)c2cnc(Nc3ccc(N4CCN(C)CC4)cc3)nc2n1-c1cccc(C(C)(C)O)n1 + Cc1cccc(N(C)C(=O)C2C(O)CCN2c2nc(C)cc(C(F)(F)F)c2C#N)c1, the pIC50 (second compound 0.0316 µM) was less than 6.00, the pIC50 (second compound 0.1 µM) was less than 6.00 and the pIC50 (second compound 0.316 µM) was less than 6.00. For the same molecule, the pIC50 (second compound 1 µM) was less than 6.00, the pIC50 (second compound 3.16 µM) was less than 6.00 and the pIC50 (second compound 10 µM) was less than 6.00. It also gave a viability, T/C (second compound 0.0316 µM, first compound 0.00316 µM) of 113%, a viability, T/C (second compound 0.0316 µM, first compound 0.01 µM) of 93.8% and a viability, T/C (second compound 0.0316 µM, first compound 0.0316 µM) of 103%. It also gave a viability, T/C (second compound 0.0316 µM, first compound 0.1 µM) of 101%, a viability, T/C (second compound 0.0316 µM, first compound 0.316 µM) of 90% and a viability, T/C (second compound 0.0316 µM, first compound 1 µM) of 55.5%. The viability, T/C (second compound 0.1 µM, first compound 0.00316 µM) was 99.3%, the viability, T/C (second compound 0.1 µM, first compound 0.01 µM) was 115% and the viability, T/C (second compound 0.1 µM, first compound 0.0316 µM) was 104%. The viability, T/C (second compound 0.1 µM, first compound 0.1 µM) was 90.1%, the viability, T/C (second compound 0.1 µM, first compound 0.316 µM) was 106% and the viability, T/C (second compound 0.1 µM, first compound 1 µM) was 54.4%. The viability, T/C (second compound 0.316 µM, first compound 0.00316 µM) was 129%, the viability, T/C (second compound 0.316 µM, first compound 0.01 µM) was 89.5% and the viability, T/C (second compound 0.316 µM, first compound 0.0316 µM) was 99.2%. For the same molecule, the viability, T/C (second compound 0.316 µM, first compound 0.1 µM) was 95.8%, the viability, T/C (second compound 0.316 µM, first compound 0.316 µM) was 75% and the viability, T/C (second compound 0.316 µM, first compound 1 µM) was 69.3%. It also gave a viability, T/C (second compound 1 µM, first compound 0.00316 µM) of 118%, a viability, T/C (second compound 1 µM, first compound 0.01 µM) of 84.4% and a viability, T/C (second compound 1 µM, first compound 0.0316 µM) of 88.9%. It also gave a viability, T/C (second compound 1 µM, first compound 0.1 µM) of 85.2%, a viability, T/C (second compound 1 µM, first compound 0.316 µM) of 90.5% and a viability, T/C (second compound 1 µM, first compound 1 µM) of 61.8%. It also gave a viability, T/C (second compound 3.16 µM, first compound 0.00316 µM) of 117%, a viability, T/C (second compound 3.16 µM, first compound 0.01 µM) of 113% and a viability, T/C (second compound 3.16 µM, first compound 0.0316 µM) of 78.2%. For the same molecule, the viability, T/C (second compound 3.16 µM, first compound 0.1 µM) was 111%, the viability, T/C (second compound 3.16 µM, first compound 0.316 µM) was 80.8% and the viability, T/C (second compound 3.16 µM, first compound 1 µM) was 59.8%. The viability, T/C (second compound 10 µM, first compound 0.00316 µM) was 108%, the viability, T/C (second compound 10 µM, first compound 0.01 µM) was 127% and the viability, T/C (second compound 10 µM, first compound 0.0316 µM) was 116%. For the same molecule, the viability, T/C (second compound 10 µM, first compound 0.1 µM) was 77%, the viability, T/C (second compound 10 µM, first compound 0.316 µM) was 70.2% and the viability, T/C (second compound 10 µM, first compound 1 µM) was 54.7%.

From PubChem BioAssay AID1963831 (Molecular Pharmacology Branch, DTP, NCI, 2024)
